The target of the test is MDM2 (Homo sapiens, UniProt Q00987). The test is described as follows: ITC. It is filed as binding.

As a reminder, the Kd is the equilibrium constant for the complex coming apart. Low values mean higher affinity, high ones lower affinity.

MDM2, sequence (Q00987 428-491 limits assumed): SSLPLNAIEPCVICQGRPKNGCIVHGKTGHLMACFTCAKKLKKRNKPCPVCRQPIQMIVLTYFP

Consider `O=C(CCl)Nc1cc(O)c2c(c1)C(=O)c1cccc(O)c1C2=O` [AQ-101], for which binding was put at a Kd of 370 nM.

(Values after paper PMC6054458 (Molecular cancer therapeutics, 2017).)
